For this assay, the system named is S. aureus ATCC 6538. Kind of assay: Porcine deep partial-thickness wound model inoculated with S. aureus; planktonic (flush) and biofilm (scrub) bacterial counts on day 2. Format: in vivo, Staphylococcus aureus. The method, then:
Summarily, forty-four deep, partial-thickness wounds were created on the paravertebral area on two pigs. Four wounds each were randomly assigned to eleven treatment groups and inoculated with S. aureus ATCC 6538. Wounds were treated with approximately 200 mg of each treatment. On day 2, wounds were assessed using a flush and scrub technique to recover planktonic and biofilm-associated bacterial count, respectively.
Swine (2 animals) were used as the experimental animal due to the morphological, physiological, and biochemical similarities between swine skin and human skin.
• 44 deep partial thickness wounds measuring 10 mm×7 mm×0.5 mm were made in the peravertebral and thoracic areas of each animal • 4 wounds were randomly assigned to each of the 11 treatment groups Inoculation: • 25 μl of inoculum of 10^6 CFU/ml were inoculated into each wound and scrubbed lightly using a sterile Teflon spatula. Experimental Design: Pig 1: Treatment Groups
• Within 20 minutes of inoculation each wound was treated with the appropriate treatment. Each wound was treated with ≅200 mg of the appropriate treatment (days 0 and 1). • All wounds were covered with polyurethane film dressings Wound Recovery: • A sterile surgical steel cylinder (22 mm inside diameter) was placed over the wound area and 1 ml of all-purpose neutralizer solution was pipetted inside. • The site was gently flushed by pipetting in and out three times to remove the loosely attached bacteria (a), this aliquot represents the planktonic bacteria. • The same wound was then encircled using another sterile cylinder and 1 ml of all-purpose neutralizer solution was again pipetted into the cylinder and this time scrubbed with a sterile Teflon spatula for 30 seconds to remove the firmly attached bacteria (b), this aliquot was aspirated and represents biofilm bacteria.

[1] abbreviates: swine wounds, 30000 μM (=15 mg/ml) DTPA used alone, topical, day 2.

Take “gentamicin [Gentamicin 0.1%, reference compound]”: the “reduction in wound bioburden versus DTPA alone” value (0.1% Gentamicin positive control compared with all DTPA concentrations alone) was “substantially more reduction in wound bioburden than any of the DTPA concentrations alone”.

As to “diethylenetriamine pentaacetic acid [DTPA]”, the “reduction of S. aureus counts compared to the untreated group” value (30000 μM DTPA alone) is listed as 99.96%. For the same substance, the “bacterial counts (planktonic and biofilm) versus untreated control wounds” value (all concentrations of DTPA alone (30 to 30000 μM)) is given as “reduced bacterial counts”. In addition, under setting [1], the biofilm count was 6.09±012 Log CFU/ml and the planktonic bacterial count was 5.19±0.29 Log CFU/ml.

These data come from US10124064B2, “Antimicrobial compositions of aminoglycosidic antibiotics and zinc ion chelators specifically formulated for enhanced inhibition of bacterial colonization and antibacterial efficacy” (University of Cincinnati, priority 2013, dated 2018).
